In patent publication US20240316074A1 (priority 2021, published 2024):
≈ marks a conversion by molar mass, not a printed value.

Assays:
[1] = target: T1, SARS-CoV-2 spike protein S1 subunit (Severe acute respiratory syndrome coronavirus 2, UniProt P0DTC2); format: binding
T1 construct: Recombinant SARS-CoV-2 spike protein S1 subunit (˜72 kDa) containing an N-terminal His-tag; purchased RayBiotech (Peachtree Corners, GA)

[2] = target: T2, transporter ABCG2 (also called BCRP) (Homo sapiens, UniProt Q9UNQ0); settings: cited from earlier work
T2 sequence (Q9UNQ0 1-655): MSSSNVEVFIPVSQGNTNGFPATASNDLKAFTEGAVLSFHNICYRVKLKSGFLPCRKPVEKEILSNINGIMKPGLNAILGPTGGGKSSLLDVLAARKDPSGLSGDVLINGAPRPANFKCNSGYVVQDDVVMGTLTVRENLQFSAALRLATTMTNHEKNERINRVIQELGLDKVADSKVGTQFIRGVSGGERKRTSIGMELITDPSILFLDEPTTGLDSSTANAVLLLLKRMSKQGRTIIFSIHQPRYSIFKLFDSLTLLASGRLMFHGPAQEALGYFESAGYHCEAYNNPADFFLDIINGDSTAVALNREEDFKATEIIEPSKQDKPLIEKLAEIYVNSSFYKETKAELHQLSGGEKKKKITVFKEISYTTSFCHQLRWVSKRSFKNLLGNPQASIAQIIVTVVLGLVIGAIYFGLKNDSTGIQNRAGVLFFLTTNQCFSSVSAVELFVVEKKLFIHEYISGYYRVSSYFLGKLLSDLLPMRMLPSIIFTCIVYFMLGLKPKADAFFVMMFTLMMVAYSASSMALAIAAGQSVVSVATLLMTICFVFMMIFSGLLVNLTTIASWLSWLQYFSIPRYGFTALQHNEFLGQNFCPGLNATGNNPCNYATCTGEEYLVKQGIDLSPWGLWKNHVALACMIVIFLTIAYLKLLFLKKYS

[3] = human volunteers, oral, 0.063 mg/kg; cited from earlier work
[4] = target: T1, SARS-CoV-2 spike protein S1 subunit; assay: Equilibrium dissociation constants by rapid equilibrium dialysis; format: binding; settings: 37° C., PBS pH 7.2
Description: Equilibrium dissociation constants. The affinity constants for the binding of active compounds to the spike protein S1 subunit were determined by rapid equilibrium dialysis. First, the optimum time for full equilibration of the RED device obtained from ThermoFisher (Waltham, MA) was determined with each of the compounds by adding 1 μM spike protein in buffer (300 μL) to the protein chamber and adding blank phosphate buffered saline, pH 7.2 (500 μL) to the buffer chamber. CBGA or CBDA was spiked into the protein chamber at a final concentration of 2.5 μM. […] After centrifugation at 18,000 g for 30 min, the supernatant was removed and ligand concentration was measured using UHPLC-MS/MS. Next, the equilibrium dissociation constants of CBGA and CBDA were determined by incubating the spike protein S1 subunit with different concentrations of the ligands ranging from 0.05-500 μM in triplicate. After 5 h for CBGA or 4 h for CBDA, the concentrations of each ligand in the sample and buffer chambers were measured using UHPLC-MS/MS as described above. Data analysis and fitting was carried out using Microsoft Excel (Seattle, WA) and KaleidaGraph v4.1 (Reading, PA).

[5] = tested on: SARS-CoV-2 (WA1/2020); format: cell-based
[6] = beagle dogs, oral, 1 mg/kg; cited from earlier work
[7] = tested on: SARS-CoV-2 (WA1/2020); assay: microbe, parasite or virus in culture; format: cell-based; settings: Severe acute respiratory syndrome coronavirus 2, Vero C1008
[8] = target: T3, SARS-CoV-2 S1 protein (Severe acute respiratory syndrome coronavirus 2, UniProt P0DTC2); assay: MagMASS competition assay with SBP-1 (binding site determination)
T3 construct: Recombinant SARS-CoV-2 spike protein S1 subunit (˜72 kDa) containing an N-terminal His-tag; purchased RayBiotech (S1); LifeTein (SBP-1 peptide)

Structure (SMILES)	Fold Peak Area Enrichment, Standards mixture [1]	Fold peak area enrichment [1]	binding in competitive binding MagMASS assays [1]	other results
CCCCCc1cc(O)c2c(c1)OC(C)(CCC=C(C)C)C=C2 (stereo not drawn) [CBC, Cannabichromene]	2.9 ± 0.75	2.9 ± 0.75	weak or no binding	–
C=C(C)[C@@H]1CCC(C)=C[C@H]1c1c(O)cc(CCCCC)cc1O [CBD, Cannabidiol]	2.9 ± 0.72	2.9 ± 0.72	weak or no binding	inhibition of the transporter ABCG2 [2]: inhibitors
C=C(C)[C@@H]1CCC(C)=C[C@H]1c1c(O)cc(CCCCC)cc1OC [CBD-OMe]	–	–	–	Fold Peak Area Enrichment, Pure compound [1]: 1.5 ± 0.12
C=C(C)[C@@H]1CCC(C)=C[C@H]1c1c(O)cc(CCCCC)c(C(=O)O)c1O [CBDA, Cannabidiolic acid]	12.2 ± 0.52	12.2 ± 0.52	–	substrate of the efflux transporter ABCG2 [2]: substrate; maximum plasma concentrations [3]: 0.21 µM; Kd [4]: 5.6 ± 2.2 µM; Fold Peak Area Enrichment, Extract #5 [1]: 15.0 ± 0.5; Fold Peak Area Enrichment, Pure compound [1]: 15.5 ± 1.1; SARS-CoV-2 viral RNA in cells (anti-dsRNA staining) [5]: absence of SARS-CoV-2 viral RNA; bioavailability relative to CBD [6]: 2 fold; serum levels [6]: up to 1.42 μM; tolerability [6]: well tolerated; IC50 [7]: 24 µg/mL (≈ 66.9 µM)
C=C(C)[C@@H]1CCC(C)=C[C@H]1c1c(O)cc(CCC)cc1O [CBDV, Cannabidivarin]	1.6 ± 0.17	1.6 ± 0.17	–	–
CCCCCc1cc(O)c(C/C=C(\C)CCC=C(C)C)c(O)c1 [CBG, Cannabigerol]	3.4 ± 0.82	3.4 ± 0.82	weak or no binding	inhibition of the transporter ABCG2 [2]: inhibitors
CCCCCc1cc(O)c(C/C=C(\C)CCC=C(C)C)c(OC)c1 [CBG-OMe]	–	–	–	Fold Peak Area Enrichment, Pure compound [1]: 1.8 ± 0.07
CCCCCc1cc(O)c(C/C=C(\C)CCC=C(C)C)c(O)c1C(=O)O [CBGA, Cannabigerolic acid]	20.5 ± 0.51	20.5 ± 0.51	–	Kd [4]: 19.8 ± 2.7 µM; Fold Peak Area Enrichment, Pure compound [1]: 10.9 ± 1.3; SARS-CoV-2 viral RNA in cells (anti-dsRNA staining) [5]: absence of SARS-CoV-2 viral RNA; IC50 [7]: 37 µg/mL (≈ 103 µM)
CCCCCc1cc(O)c2c(c1)OC(C)(C)c1ccc(C)cc1-2 [CBN, Cannabinol]	3.4 ± 0.78	3.4 ± 0.78	weak or no binding	–
CCCCCc1cc2c(c(O)c1C(=O)O)-c1cc(C)ccc1C(C)(C)O2 [CBNA, Cannabinolic acid]	–	5.6 ± 1.4	–	–
Cc1ccc(NC(=O)c2ccc(CN3CCN(C)CC3)cc2)cc1Nc1nccc(-c2cccnc2)n1 [Imatinib, imatinib]	–	–	–	binding to the immobilized S1 protein in the MagMASS assay [1]: no binding
CCCCCc1cc2c(c(O)c1C(=O)O)[C@@H]1C=C(C)CC[C@H]1C(C)(C)O2 [THCA-A, Tetrahydrocannabinolic acid]	16.7 ± 2.2	16.7 ± 2.2	–	Fold Peak Area Enrichment, Pure compound [1]: 19.7 ± 2.0
C=CC(C)(C)c1cc(/C=C/C(=O)c2ccc(O)cc2)c(OC)cc1O [licochalcone A]	–	–	–	binding in the presence of SBP-1 ([8]; 2.8 μM SBP-1): reduced; MagMASS peak area enrichment lowered when SBP-1 was added ([8]; SBP-1 added to incubation with active S1 protein): 3 fold
COc1c(C)c2c(c(O)c1C/C=C(\C)CCC(=O)O)C(=O)OC2 [mycophenolic acid]	–	–	–	binding to the immobilized S1 protein in the MagMASS assay [1]: no binding
CCN(CC)CCCC(C)Nc1c2ccc(Cl)cc2nc2ccc(OC)cc12 (stereo not drawn) [quinacrine]	–	–	–	binding to the immobilized S1 protein in the MagMASS assay [1]: no binding
CCCCCc1cc(O)c2c(c1)OC(C)(C)[C@@H]1CC=C(C)C[C@@H]21 [Δ^8-THC, Δ^8-Tetrahydrocannabinol]	3.1 ± 0.81	3.1 ± 0.81	weak or no binding	–
CCCCCc1cc(O)c2c(c1)OC(C)(C)[C@@H]1CCC(C)=C[C@@H]21 [Δ^9-THC, Δ^9-Tetrahydrocannabinol]	3.0 ± 0.77	3.0 ± 0.77	weak or no binding	–
